According to patent publication US20210330611A1, “THERAPY FOR NEUROLOGICAL DISEASES/DISORDERS” (priority 2020, published 2021):
Counter-ions that a name gives are not always drawn. Like-named read-outs stand apart in the source and are kept apart here.

Assays:
[1] = test system: fibrin-induced microglia activation; experiment: Image-based assay of fibrin-induced microglia activation (HTS and dose response); assay type: cell-based, rat; details: for inhibition at 10 µM: read-out: Fibrin % inhibition
[2] = test system: LPS-induced microglia activation; experiment: Image-based assay of LPS-induced microglia activation (HTS and dose response); assay type: cell-based, rat; details: for inhibition at 10 µM: read-out: LPS % inhibition
[3] = test system: fibrin- and LPS-induced microglia activation; experiment: cells; assay type: cell-based, rat
primary rat microglia [4] = experiment: Cell toxicity (dead cells, size <150 μm2) in LPS assay; details: for IC50: read-out: Cell Toxicity IC50 (uM) [LPS assay]
primary rat microglia [5] = experiment: Cell toxicity (dead cells, size <150 μm2) in coated fibrin (cFib) assay; details: for IC50: read-out: Cell Toxicity IC50 (uM) [cFib assay];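 on Fibrin % cell toxicity: share of dead cells sized under 150 µm2 at 10 µM in fibrin-stimulated microglia HTS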
[6] = primary microglia HTS, fibrin stimulation, increased cell size (>800 μm^2) as marker of activation
[7] = primary microglia HTS, LPS stimulation, increased cell size (>800 μm^2) as marker of activation
[8] = quadrant by fibrin and LPS inhibition in HTS of 1907 compounds
[9] = primary microglia HTS, LPS stimulation, decreased size (<150 μm^2) as marker of toxicity
[10] = primary microglia HTS, fibrin stimulation, decreased size (<150 μm^2) as marker of toxicity
[11] = Rattus norvegicus, Microglia, primary HTS, 10 μM, fibrin-stimulated primary microglia
[12] = Rattus norvegicus, Microglia, primary HTS, 10 μM, LPS-stimulated primary microglia
[13] = primary HTS, 10 μM, LPS assay, dead cells size <150 μm2
[14] = primary HTS, 10 μM, fibrin assay, dead cells size <150 μm2
[15] = Rattus norvegicus, Microglia, primary microglia HTS, fibrin stimulation, increased cell size (>800 μm^2) as marker of activation
[16] = Rattus norvegicus, Microglia, 48 h, primary microglia HTS, LPS stimulation, increased cell size (>800 μm^2) as marker of activation
[17] = Rattus norvegicus, Microglia, primary microglia HTS, fibrin stimulation, activation = cell size >800 μm2
[18] = Rattus norvegicus, Microglia, 48 h, primary microglia HTS, LPS stimulation, activation = cell size >800 μm2
[19] = primary microglia HTS, LPS stimulation, toxicity = cell size <150 μm2
[20] = primary microglia HTS, fibrin stimulation, toxicity = cell size <150 μm2

Structure (SMILES): CC[C@H](C)C(=O)O[C@H]1CCC=C2C=C[C@H](C)[C@H](CC[C@@H]3C[C@@H](O)CC(=O)O3)[C@H]21 [Compactin, Mevastatin]
- Fibrin % inhibition [1, 6]: 105%
- LPS % inhibition [2, 7]: 89%
- Quadrant (FIG. 5b) [3, 8]: Q2
- LPS % cell toxicity (primary rat microglia [4]; [9]): 2%
- Fibrin % cell toxicity (primary rat microglia [5]; [10]): 3%

Structure (SMILES): CC(=O)OCC(=O)[C@@]1(O)CC[C@H]2[C@@H]3CCC4=CC(=O)CC[C@]4(C)[C@H]3C(=O)C[C@@]21C [Cortisone Acetate]
- inhibition at 10 µM [1, 11]: 0%
- inhibition at 10 µM [2, 12]: 7%
- Quadrant (FIG. 5b) ([3]; primary HTS, 10 μM): Q4
- LPS % cell toxicity (primary rat microglia [4]; [13]): 0%
- Fibrin % cell toxicity (primary rat microglia [5]; [14]): 1%

Structure (SMILES): CN1C(=O)CC[C@H]1c1cccnc1 [Cotinine]
- inhibition at 10 µM [1, 11]: -39%
- inhibition at 10 µM [2, 12]: 6%
- Quadrant (FIG. 5b) ([3]; primary HTS, 10 μM): Q4
- LPS % cell toxicity (primary rat microglia [4]; [13]): 1%
- Fibrin % cell toxicity (primary rat microglia [5]; [14]): 1%

Structure (SMILES): C[C@H]1O[C@@H](O[C@H]2CC[C@@]3(C)[C@H](CC[C@@H]4[C@@H]3C[C@@H](O)[C@]3(C)[C@@H](C5=CC(=O)OC5)CC[C@]43O)C2)C[C@H](O)[C@@H]1O[C@H]1C[C@H](O)[C@H](O[C@H]2C[C@H](O)[C@H](O[C@@H]3O[C@H](CO)[C@@H](O)[C@H](O)[C@H]3O)[C@@H](C)O2)[C@@H](C)O1 [Deslanoside]
- inhibition at 10 µM [1, 15]: -3%
- inhibition at 10 µM [2, 16]: 67%
- Quadrant (FIG. 5b) [3, 8]: Q1
- LPS % cell toxicity (primary rat microglia [4]; [9]): 1%
- Fibrin % cell toxicity (primary rat microglia [5]; [10]): 1%

Structure (SMILES): CC1(C)O[C@@H]2C[C@H]3[C@@H]4CCC5=CC(=O)C=C[C@]5(C)[C@H]4[C@@H](O)C[C@]3(C)[C@]2(C(=O)CO)O1 [Desonide]
- inhibition at 10 µM [1, 15]: 108%
- inhibition at 10 µM [2, 16]: 112%
- Quadrant (FIG. 5b) [3, 8]: Q2
- LPS % cell toxicity (primary rat microglia [4]; [9]): 5%
- Fibrin % cell toxicity (primary rat microglia [5]; [10]): 17%

Structure (SMILES): C[C@@H]1C[C@H]2[C@@H]3CCC4=CC(=O)C=C[C@]4(C)[C@@]3(F)[C@@H](O)C[C@]2(C)[C@H]1C(=O)CO [Desoximetasone]
- inhibition at 10 µM [1, 15]: 101%
- inhibition at 10 µM [2, 16]: 91%
- Quadrant (FIG. 5b) [3, 8]: Q2
- LPS % cell toxicity (primary rat microglia [4]; [9]): 3%
- Fibrin % cell toxicity (primary rat microglia [5]; [10]): 5%

Structure (SMILES): C[C@@H]1C[C@H]2[C@@H]3CCC4=CC(=O)C=C[C@]4(C)[C@@]3(F)[C@@H](O)C[C@]2(C)[C@H]1C(=O)CO [Desoxymetasone]
- Fibrin % inhibition [1, 6]: 108%
- LPS % inhibition [2, 7]: 105%
- Quadrant (FIG. 5b) [3, 8]: Q2
- LPS % cell toxicity (primary rat microglia [4]; [9]): 3%
- Fibrin % cell toxicity (primary rat microglia [5]; [10]): 3%

Structure (SMILES): CCCCC[C@H](O)/C=C/[C@H]1[C@H](O)CC(=O)[C@@H]1C/C=C\CCCC(=O)O [Dinoprostone]
- inhibition at 10 µM [1, 15]: 102%
- inhibition at 10 µM [2, 16]: 85%
- Quadrant (FIG. 5b) [3, 8]: Q2
- LPS % cell toxicity (primary rat microglia [4]; [9]): 2%
- Fibrin % cell toxicity (primary rat microglia [5]; [10]): 9%

Structure (SMILES): Cc1c(N(C)CS(=O)(=O)[O-])c(=O)n(-c2ccccc2)n1C.[Na+] [Dipyrone]
- Fibrin % inhibition [1, 6]: 106%
- LPS % inhibition [2, 7]: 101%
- Quadrant (FIG. 5b) [3, 8]: Q2
- LPS % cell toxicity (primary rat microglia [4]; [9]): 36%
- Fibrin % cell toxicity (primary rat microglia [5]; [10]): 26%

Structure (SMILES): CCn1cc(C(=O)O)c(=O)c2cc(F)c(N3CCNCC3)nc21 [Enoxacin]
- inhibition at 10 µM [1, 15]: 113%
- inhibition at 10 µM [2, 16]: 119%
- Quadrant (FIG. 5b) [3, 8]: Q2
- LPS % cell toxicity (primary rat microglia [4]; [9]): 12%
- Fibrin % cell toxicity (primary rat microglia [5]; [10]): 84%

Structure (SMILES): COC(=O)[C@@H]1CC2=CC(=O)CC[C@]2(C)[C@@]23O[C@@H]2C[C@@]2(C)[C@@H](CC[C@@]24CCC(=O)O4)[C@H]13 [Eplerenore, reference compound]
- Fibrin Selectivity [1]: 8
- Fibrin Selectivity (LOG10) [1]: 0.88
- IC50 ([1]; Table 1, dose response 0.001-20 μM, triplicates, primary rat microglia, 48 h, read-out: Fibrin IC50): 3 µM
- IC50 ([1]; Table 3, read-out: Fibrin IC50 (uM) (Suppl. Table 7)): 3 µM
- IC50 ([1]; dose response, fibrin-induced microglia activation, read-out: Fibrin IC50): 3 µM
- IC50 ([1]; fibrin-induced microglia activation, dose response, read-out: Fibrin IC50 (uM) (Suppl. Table 7)): 3 µM
- Fibrin % inhibition [1, 6]: 63%
- IC50 ([2]; LPS-induced microglia activation, dose response, read-out: LPS IC50 (uM) (Suppl. Table 7)): > 20 µM
- IC50 ([2]; Table 1, dose response 0.001-20 μM, triplicates, primary rat microglia, 48 h, read-out: LPS IC50): > 20 µM
- IC50 ([2]; Table 3, read-out: LPS IC50 (uM) (Suppl. Table 7)): > 20 µM
- IC50 ([2]; dose response, LPS-induced microglia activation, read-out: LPS IC50): > 20 µM
- LPS % inhibition [2, 7]: 69%
- Hit ([3]; HTS hit classification): HIT (Hits were defined as molecules that exhibited greater than 50% inhibition of either fibrin or LPS activation)
- Quadrant (FIG. 5b) ([3]; HTS of 1907 compounds, quadrant by fibrin and LPS inhibition): Q2
- Quadrant (FIG. 5b) ([3]; Table 1, screen at 10 μM): Q2
- Cherry-picked Hit (Suppl. Table 7) ([3]; Table 3): HIT (Hits were defined as molecules that exhibited greater than 50% inhibition of either fibrin or LPS activation)
- Quadrant (FIG. 5b) ([3]; Table 3, screen at 10 μM): Q2
- Cherry-picked Hit (Suppl. Table 7) ([3]; hit classification in microglia HTS): HIT (Hits were defined as molecules that exhibited greater than 50% inhibition of either fibrin or LPS activation)
- Quadrant (FIG. 5b) [3, 8]: Q2
- LPS % cell toxicity (primary rat microglia [4]; [9]): 2%
- IC50 (primary rat microglia [4]; LPS assay): > 20 µM
- IC50 (primary rat microglia [4]; Table 3): > 20 µM
- Fibrin % cell toxicity (primary rat microglia [5]; [10]): 2%
- IC50 (primary rat microglia [5]; Table 3): > 20 µM
- IC50 (primary rat microglia [5]; cFib assay): > 20 µM

Structure (SMILES): C[CH2][Hg][S]c1ccccc1C(=O)O [Ethylmercurithiosalicylic acid]
- Fibrin % inhibition [1, 6]: 109%
- LPS % inhibition [2, 7]: 127%
- Quadrant (FIG. 5b) [3, 8]: Q2
- LPS % cell toxicity (primary rat microglia [4]; [9]): 95%
- Fibrin % cell toxicity (primary rat microglia [5]; [10]): 92%

Structure (SMILES): CC(NCCC(c1ccccc1)c1ccccc1)c1ccccc1 (stereo not drawn) [Fendiline hydrochloride, reference compound]
- IC50 ([1]; Rattus norvegicus, Microglia, Table 7, read-out: fib_IC50): 1.75 µM
- inhibition at 10 µM [1, 15]: -33%
- inhibition at 10 µM [2, 16]: 10%
- IC50 ([2]; Rattus norvegicus, Microglia, Table 7, read-out: LPS_IC50): 0.9 µM
- Quadrant (FIG. 5b) ([3]; Table 2, screen at 10 μM): Q4
- Activity ([3]; Table 7, fib = fibrin, LPS, tox = toxicity): fib/LPS
- Quadrant (FIG. 5b) [3, 8]: Q4
- LPS % cell toxicity (primary rat microglia [4]; [9]): 0%
- Fibrin % cell toxicity (primary rat microglia [5]; [10]): 1%

Structure (SMILES): CC(C)(Oc1ccc(C(=O)c2ccc(Cl)cc2)cc1)C(=O)O [Fenofibric Acid]
- inhibition at 10 µM [1, 17]: 6%
- inhibition at 10 µM [2, 18]: 9%
- Quadrant (FIG. 5b) [3, 8]: Q4
- LPS % cell toxicity (primary rat microglia [4]; [19]): 0%
- Fibrin % cell toxicity (primary rat microglia [5]; [20]): 1%

Structure (SMILES): CC(C(=O)O)c1cccc(Oc2ccccc2)c1 (stereo not drawn) [Fenoprofen]
- inhibition at 10 µM [1, 17]: -7%
- inhibition at 10 µM [2, 18]: -4%
- Quadrant (FIG. 5b) [3, 8]: Q4
- LPS % cell toxicity (primary rat microglia [4]; [19]): 0%
- Fibrin % cell toxicity (primary rat microglia [5]; [20]): 0%

Structure (SMILES): CC1=C(/C=C/C(C)=C/C=C/C(C)=C/C(=O)Nc2ccc(O)cc2)C(C)(C)CCC1 [Fenretinide]
- inhibition at 10 µM [1, 17]: -42%
- inhibition at 10 µM [2, 18]: 35%
- Quadrant (FIG. 5b) [3, 8]: Q4
- LPS % cell toxicity (primary rat microglia [4]; [19]): 0%
- Fibrin % cell toxicity (primary rat microglia [5]; [20]): 0%

Structure (SMILES): O=C1NCC2(CCN(CCc3ccccc3)CC2)O1 [Fenspiride]
- inhibition at 10 µM [1, 17]: -43%
- inhibition at 10 µM [2, 18]: -1%
- Quadrant (FIG. 5b) [3, 8]: Q4
- LPS % cell toxicity (primary rat microglia [4]; [19]): 0%
- Fibrin % cell toxicity (primary rat microglia [5]; [20]): 1%

Structure (SMILES): O=C(COc1ccc(Cl)cc1)N1CCN(Cc2ccc3c(c2)OCO3)CC1 [Fipexide Hydrochloride]
- inhibition at 10 µM [1, 17]: -15%
- inhibition at 10 µM [2, 18]: 11%
- Quadrant (FIG. 5b) [3, 8]: Q4
- LPS % cell toxicity (primary rat microglia [4]; [19]): 0%
- Fibrin % cell toxicity (primary rat microglia [5]; [20]): 0%
